Calls of active or inactive are those of the source. The calls are words filed in the database; no cut-off is given here.
Columns and labels:
[1] = biological target: T1, Endothelin-converting enzyme 1 (Homo sapiens, UniProt P42892); test: Concentration required to inhibit conversion of […] after deprotection and purification by reverse-phase HPLC; assay type: functional
T1 sequence (P42892 whole entry): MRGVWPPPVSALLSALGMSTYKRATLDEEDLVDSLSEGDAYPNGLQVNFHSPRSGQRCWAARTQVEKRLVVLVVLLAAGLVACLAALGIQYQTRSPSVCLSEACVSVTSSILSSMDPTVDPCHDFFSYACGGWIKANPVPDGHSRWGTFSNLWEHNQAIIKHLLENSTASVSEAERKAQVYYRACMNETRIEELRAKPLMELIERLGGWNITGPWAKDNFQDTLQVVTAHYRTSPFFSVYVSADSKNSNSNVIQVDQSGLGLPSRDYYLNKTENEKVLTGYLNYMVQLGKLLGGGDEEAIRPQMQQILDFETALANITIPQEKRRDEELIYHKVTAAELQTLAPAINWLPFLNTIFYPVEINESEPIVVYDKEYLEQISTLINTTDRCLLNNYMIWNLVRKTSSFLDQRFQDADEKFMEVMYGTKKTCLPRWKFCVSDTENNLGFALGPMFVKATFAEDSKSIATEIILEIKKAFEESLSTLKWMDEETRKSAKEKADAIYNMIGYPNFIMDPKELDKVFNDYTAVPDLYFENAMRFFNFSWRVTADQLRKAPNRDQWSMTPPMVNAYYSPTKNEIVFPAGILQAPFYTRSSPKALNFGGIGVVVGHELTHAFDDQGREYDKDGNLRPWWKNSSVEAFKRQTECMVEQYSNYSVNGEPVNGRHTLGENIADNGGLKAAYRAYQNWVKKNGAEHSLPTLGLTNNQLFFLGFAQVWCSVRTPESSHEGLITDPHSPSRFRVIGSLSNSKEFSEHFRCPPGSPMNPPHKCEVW

[2] = Inhibitory activity against thermolysin induced by big ET-1 which inhibited hypertensive effect; active; assay type: functional

IC50 [1] [µM] | SMILES | Inhibitory activity [2]
5.05 | CC(C)C[C@H](NP1(=O)OC(C)C(O)C(O)C1O)C(=O)N[C@@H](Cc1c[nH]c2ccccc12)C(=O)O (some centres not stated) | –
– | CC(C)C[C@H](NP(=O)(O)OC1OC(C)C(O)C(O)C1O)C(=O)N[C@@H](Cc1c[nH]c2ccccc12)C(=O)O (some centres not stated) | Active
